As a reminder, the IC50 is the concentration at which inhibition is half-maximal.

Each structure is given as a SMILES string.

Common to all, as to assay type: cell-based
The target in one assay is T1, AXL (Homo sapiens, UniProt P30530).
T1 construct: endogenous in cells; host or cells: A-172 glioblastoma cells (ATCC #CRL-1620)
T1 sequence (P30530 26-894): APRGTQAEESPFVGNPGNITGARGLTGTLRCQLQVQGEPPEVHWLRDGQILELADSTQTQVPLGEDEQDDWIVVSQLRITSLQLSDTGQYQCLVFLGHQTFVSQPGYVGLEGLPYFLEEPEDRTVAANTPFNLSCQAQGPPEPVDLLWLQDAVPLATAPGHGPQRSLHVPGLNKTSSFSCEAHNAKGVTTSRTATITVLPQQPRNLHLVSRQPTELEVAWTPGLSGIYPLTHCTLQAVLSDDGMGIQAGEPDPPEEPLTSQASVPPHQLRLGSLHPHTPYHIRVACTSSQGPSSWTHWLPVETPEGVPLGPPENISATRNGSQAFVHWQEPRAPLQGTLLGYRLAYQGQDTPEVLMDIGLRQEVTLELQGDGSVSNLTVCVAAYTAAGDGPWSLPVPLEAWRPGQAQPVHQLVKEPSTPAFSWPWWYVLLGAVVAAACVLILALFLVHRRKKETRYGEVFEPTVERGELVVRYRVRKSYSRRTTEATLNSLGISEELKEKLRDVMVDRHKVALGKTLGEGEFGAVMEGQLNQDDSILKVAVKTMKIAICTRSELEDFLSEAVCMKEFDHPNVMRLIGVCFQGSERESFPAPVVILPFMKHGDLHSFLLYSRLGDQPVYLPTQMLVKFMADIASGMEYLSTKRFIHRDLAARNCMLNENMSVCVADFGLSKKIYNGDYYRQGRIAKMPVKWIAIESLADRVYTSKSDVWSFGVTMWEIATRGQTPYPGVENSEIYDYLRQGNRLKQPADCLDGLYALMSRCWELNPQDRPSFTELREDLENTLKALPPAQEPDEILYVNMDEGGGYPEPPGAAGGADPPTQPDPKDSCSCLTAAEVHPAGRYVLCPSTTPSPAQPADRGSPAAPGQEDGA
Briefly: AXL autophosphorylation ELISA in A-172 cells. The settings on record: cellular activity, Gas6-stimulated, phospho-AXL ELISA. The procedure: A-172 glioblastoma cells (ATCC #CRL-1620) were seeded at 2.5×10^5 cells/well onto 24-well plates (Greiner #662165), in DMEM (Thermo Fisher #11995-040) containing 10% FBS (Thermo Fisher #26140-079), 1% MEM NEAA (Thermo Fisher #11140-050), 1% GlutaMax (Thermo Fisher #35050-061) and 1% Penicillin Streptomycin (Thermo Fisher #15140-122). A-172 cells were incubated at 37° C., 5% CO2 for 24 h and then starved for 24 h in serum-free medium. Test compounds were serially diluted to produce an 8-point dose curve in fresh serum-free medium to a final concentration of 0.3% DMSO (vehicle) and added to the cells and incubated for 1 h. Cells were then stimulated with 1 μg/mL recombinant human Gas6 (R&D Systems #885-GSB-500) for 15 min, washed with cold PBS and immediately lysed with 150 μL of cold 1× lysis buffer [20 mM Tris, 137 mM sodium chloride, 2 mM EDTA, 10% glycerol, 1% NP-40 alternative, 1 mM activated sodium orthovanadate, 1 mM PefaBloc SC (Sigma-Aldrich #11429868001), protease/phosphatase inhibitor tablet (Thermo Fisher #A32959)]. Lysates were collected and 100 μL/well added into the human phospho-AXL DuoSet IC ELISA (R&D Systems #DYC2228-2). Assay was performed according to manufacturer's instructions and sample phospho-AXL concentrations were extrapolated using human phospho-AXL control (R&D Systems #841645) as a standard. Positive control wells (100% activity) contained Gas6-stimulated, DMSO-treated cell lysates. Negative control wells (0% activity) contained Gas6-stimulated, reference inhibitor-treated cell lysates. IC50 values were calculated by nonlinear regression analysis using a 4-parameter logistic curve fit in ActivityBase XE (IDBS).
(ELISA stands for enzyme-linked immunosorbent assay.)

A further assay concerns the target KDR (Homo sapiens, UniProt P35968). The assay can be described thus: KDR autophosphorylation ELISA in HUVEC cells. Details: endogenous in cells; host or cells: HUVEC (Lonza #C2519A). The note with it: cellular activity, VEGF165-stimulated, phospho-KDR ELISA. The protocol:
Human umbilical vein endothelial cells or HUVEC (Lonza #C2519A) were seeded at 2×10^4 cells/well onto 96-well plates (Corning #3904), in EGM-2 growth medium (Lonza #CC-3162) containing 1% Penicillin Streptomycin (Thermo Fisher #15140-122). HUVEC cells were incubated at 37° C., 5% CO2 for 24 h and then starved for 24 h in serum-free EBM-2 basal medium (Lonza #CC-3156) containing 1% Penicillin Streptomycin. Test compounds were serially diluted to produce an 8-point dose curve in fresh serum-free medium to a final concentration of 0.3% DMSO (vehicle) and added to the cells and incubated for 1 h. Cells were then stimulated with 100 ng/mL recombinant human VEGF165 (R&D Systems #293-VE-500) for 5 min, washed with cold PBS, and immediately lysed with 130 μL of cold 1× lysis buffer [20 mM Tris, 137 mM sodium chloride, 2 mM EDTA, 10% glycerol, 1% NP-40 alternative, 1 mM activated sodium orthovanadate, 1 mM PefaBloc SC (Sigma-Aldrich #11429868001), protease/phosphatase inhibitor tablet (Thermo Fisher #A32959)]. Lysates were collected and 100 μL/well added into the human phospho-KDR DuoSet IC ELISA (R&D Systems #DYC1766-2). Assay was performed according to manufacturer's instructions and sample phospho-KDR concentrations were extrapolated using human phospho-KDR control (R&D Systems #841421) as a standard. Positive control wells (100% activity) contained VEGF165-stimulated, DMSO-treated cell lysates. Negative control wells (0% activity) contained non-stimulated cell lysates. IC50 values were calculated by nonlinear regression analysis using a 4-parameter logistic curve fit in ActivityBase XE (IDBS).

Another assay deals with Met (Homo sapiens, UniProt P08581). The assay can be described thus: Met autophosphorylation ELISA in PC-3 cells. Also noted: endogenous in cells; host or cells: PC-3 prostate cancer cells (ATCC #CRL-1435). The settings on record: cellular activity, HGF-stimulated, phospho-Met ELISA, read-out: c-Met IC50. The procedure:
PC-3 prostate cancer cells (ATCC #CRL-1435) were seeded at 4×10^4 cells/well onto 24-well plates (Greiner #662165), in DMEM (Thermo Fisher #11995-040) containing 10% FBS (Thermo Fisher #26140-079), 1% MEM NEAA (Thermo Fisher #11140-050), 1% GlutaMax (Thermo Fisher #35050-061), and 1% Penicillin Streptomycin (Thermo Fisher #15140-122). PC-3 cells were incubated at 37° C., 5% CO2 for 24 h and then starved for 3 h in serum-free medium. Test compounds were serially diluted to produce an 8-point dose curve in fresh serum-free medium to a final concentration of 0.3% DMSO (vehicle) and added to the cells and incubated for 1 h. Cells were then stimulated with 100 ng/mL recombinant human HGF (R&D Systems #294-HG-250) for 10 min, washed with cold PBS and immediately lysed with 130 μL of cold 1× lysis buffer [20 mM Tris, 137 mM sodium chloride, 2 mM EDTA, 10% glycerol, 1% NP-40 alternative, 1 mM activated sodium orthovanadate, 1 mM PefaBloc SC (Sigma-Aldrich #11429868001), protease/phosphatase inhibitor tablet (Thermo Fisher #A32959)]. Lysates were clarified by centrifugation and 100 μL/well added into the PathScan phospho-Met (panTyr) Sandwich ELISA (Cell Signaling Technology #7333). Assay was performed according to manufacturer's instructions. Positive control wells (100% activity) contained HGF-stimulated, DMSO-treated cell lysates. Negative control wells (0% activity) contained HGF-stimulated, reference inhibitor-treated cell lysates. IC50 values were calculated by nonlinear regression analysis using a 4-parameter logistic curve fit in ActivityBase XE (IDBS).

KDR, sequence (P35968 20-1356): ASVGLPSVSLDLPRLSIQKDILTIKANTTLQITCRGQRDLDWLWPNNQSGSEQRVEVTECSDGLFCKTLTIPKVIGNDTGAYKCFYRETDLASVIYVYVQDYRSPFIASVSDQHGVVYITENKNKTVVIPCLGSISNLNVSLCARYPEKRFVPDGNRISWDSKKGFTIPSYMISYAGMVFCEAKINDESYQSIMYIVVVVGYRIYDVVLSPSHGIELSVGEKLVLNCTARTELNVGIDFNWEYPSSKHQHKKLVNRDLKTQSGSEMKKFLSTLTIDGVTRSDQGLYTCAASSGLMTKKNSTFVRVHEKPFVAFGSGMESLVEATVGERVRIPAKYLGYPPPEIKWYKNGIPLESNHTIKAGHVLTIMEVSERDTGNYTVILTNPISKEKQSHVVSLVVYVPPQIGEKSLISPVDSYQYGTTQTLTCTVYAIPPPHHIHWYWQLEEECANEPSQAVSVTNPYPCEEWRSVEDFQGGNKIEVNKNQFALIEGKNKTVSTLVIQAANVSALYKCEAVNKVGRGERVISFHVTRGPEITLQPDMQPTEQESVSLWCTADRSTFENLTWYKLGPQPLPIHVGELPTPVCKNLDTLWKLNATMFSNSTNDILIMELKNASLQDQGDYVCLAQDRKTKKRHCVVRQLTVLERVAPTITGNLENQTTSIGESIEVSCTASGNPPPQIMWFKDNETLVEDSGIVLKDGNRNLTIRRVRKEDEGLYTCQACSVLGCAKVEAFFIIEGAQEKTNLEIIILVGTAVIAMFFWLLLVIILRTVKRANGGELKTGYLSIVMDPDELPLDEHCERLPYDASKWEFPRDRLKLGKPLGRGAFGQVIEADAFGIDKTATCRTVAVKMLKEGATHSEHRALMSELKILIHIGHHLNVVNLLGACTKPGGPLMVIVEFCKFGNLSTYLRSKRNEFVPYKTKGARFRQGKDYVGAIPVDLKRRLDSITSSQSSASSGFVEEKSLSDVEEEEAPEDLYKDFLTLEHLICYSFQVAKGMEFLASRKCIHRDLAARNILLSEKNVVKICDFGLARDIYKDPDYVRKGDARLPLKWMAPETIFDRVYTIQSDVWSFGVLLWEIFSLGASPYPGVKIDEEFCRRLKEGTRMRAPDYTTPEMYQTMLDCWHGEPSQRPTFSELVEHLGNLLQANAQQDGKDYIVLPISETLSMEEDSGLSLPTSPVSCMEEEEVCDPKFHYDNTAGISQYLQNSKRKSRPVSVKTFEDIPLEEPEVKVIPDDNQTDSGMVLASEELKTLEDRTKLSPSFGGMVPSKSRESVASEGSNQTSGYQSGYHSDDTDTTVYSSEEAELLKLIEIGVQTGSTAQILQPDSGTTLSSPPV
Met, sequence (P08581 25-1390): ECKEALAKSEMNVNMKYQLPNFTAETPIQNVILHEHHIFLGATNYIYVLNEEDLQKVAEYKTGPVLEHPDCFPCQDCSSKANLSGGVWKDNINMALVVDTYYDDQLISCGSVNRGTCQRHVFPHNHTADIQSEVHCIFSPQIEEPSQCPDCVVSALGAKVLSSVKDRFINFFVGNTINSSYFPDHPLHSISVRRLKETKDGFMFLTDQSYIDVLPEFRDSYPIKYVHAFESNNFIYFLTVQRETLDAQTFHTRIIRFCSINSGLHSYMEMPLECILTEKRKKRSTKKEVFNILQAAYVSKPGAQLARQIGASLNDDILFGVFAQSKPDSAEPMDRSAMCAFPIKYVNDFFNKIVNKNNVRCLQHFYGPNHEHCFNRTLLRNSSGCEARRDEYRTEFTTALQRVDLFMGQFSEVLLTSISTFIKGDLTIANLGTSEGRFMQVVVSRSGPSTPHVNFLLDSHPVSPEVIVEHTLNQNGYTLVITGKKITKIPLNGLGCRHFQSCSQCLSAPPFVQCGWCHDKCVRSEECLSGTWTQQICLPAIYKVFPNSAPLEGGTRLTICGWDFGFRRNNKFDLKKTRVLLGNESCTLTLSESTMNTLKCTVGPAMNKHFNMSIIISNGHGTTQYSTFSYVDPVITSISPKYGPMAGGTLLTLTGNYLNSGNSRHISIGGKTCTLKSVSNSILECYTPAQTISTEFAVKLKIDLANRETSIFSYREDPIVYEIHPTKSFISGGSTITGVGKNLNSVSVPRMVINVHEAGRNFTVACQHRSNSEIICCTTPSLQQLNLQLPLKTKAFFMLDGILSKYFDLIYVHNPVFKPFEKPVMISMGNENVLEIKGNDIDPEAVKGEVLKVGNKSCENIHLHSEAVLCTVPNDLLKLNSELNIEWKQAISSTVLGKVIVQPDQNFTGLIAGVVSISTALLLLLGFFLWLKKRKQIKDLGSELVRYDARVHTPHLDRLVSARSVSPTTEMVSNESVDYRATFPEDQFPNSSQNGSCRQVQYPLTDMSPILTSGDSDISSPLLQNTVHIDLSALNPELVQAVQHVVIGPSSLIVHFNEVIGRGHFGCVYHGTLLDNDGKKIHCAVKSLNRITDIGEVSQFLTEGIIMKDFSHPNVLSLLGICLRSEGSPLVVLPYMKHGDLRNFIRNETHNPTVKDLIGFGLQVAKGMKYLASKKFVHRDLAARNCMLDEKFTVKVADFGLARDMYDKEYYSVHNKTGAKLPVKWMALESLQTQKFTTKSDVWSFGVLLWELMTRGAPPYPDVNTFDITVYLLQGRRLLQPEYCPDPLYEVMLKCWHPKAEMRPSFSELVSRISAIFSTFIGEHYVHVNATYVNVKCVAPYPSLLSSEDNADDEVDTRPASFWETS

On to `O=C(Nc1ccc(F)cc1)C1(C(=O)Nc2ccc(Oc3ccnc4cc(-c5ccc(C6CC6)nc5)ccc34)cc2)CC1` [Compound 43, 1-N-[4-[7-(6-Cyclopropylpyridin-3-yl)quinolin-4-yl]oxyphenyl]-1-N′-(4-fluorophenyl)cyclopropane-1,1-dicarboxamide], for which the IC50 fell in the range of 100 to 300 nM against AXL, 10 to 100 nM at KDR and 100 to 300 nM on Met.

For the origin of these results see US12503438B2, “Compounds for the treatment of kinase-dependent disorders” (Exelixis, Inc., priority 2019, dated 2025).
